Laboratory results reported in ChEMBL document CHEMBL6083263, “The Discovery of MORF-627, a Highly Selective Conformationally-Biased Zwitterionic Integrin αvβ6 Inhibitor for Fibrosis” (J Med Chem, 2024).

Legend:
[1] = molecular target: Integrin alpha-V/beta-8 (Homo sapiens, UniProt P06756+P26012); experiment: Displacement of fluorescein labeled GRGDLGRL from human Integrin alphaVbeta8 preincubated for 15 mins followed by fluorescein labeled GRGDLGRL addition and measured after 1 hr by fluorescence polarization assay; format: protein-complex assay
[2] = molecular target: Integrin alpha-V/beta-1 (Homo sapiens, UniProt P05556+P06756); experiment: Displacement of fluorescein labeled ACRGDGWC from human Integrin alphaVbeta1 preincubated for 15 mins followed by fluorescein labeled ACRGDGWC addition and measured after 1 hr by fluorescence polarization assay; format: protein-complex assay
[3] = molecular target: T1, Integrin alpha-V/beta-6 (Homo sapiens, UniProt P06756+P18564); experiment: Displacement of fluorescein labeled GRGDLGRL from human Integrin alphaVbeta6 preincubated for 15 mins followed by fluorescein labeled GRGDLGRL addition and measured after 1 hr by fluorescence polarization assay; format: protein-complex assay
[4] = Octanol/water partition coefficient, logD of the compound; format: physicochemical
[5] = molecular target: T1, Integrin alpha-V/beta-6; experiment: Binding affinity to human Integrin alphaVbeta6 overexpressed in HEK293 cells incubated for 15 mins in presence of human serum by flow cytometry assay; format: cell-based
[6] = Half-life in Sprague-Dawley rat at 1 mg/kg, iv measured upto 24 hrs by LC/MS-MS analysis; format: ADME, organism-based; conditions: in vivo
[7] = Oral bioavailability in Sprague-Dawley rat at 10 mg/kg measured upto 24 hrs by LC/MS-MS analysis; format: ADME, organism-based; conditions: in vivo
[8] = Volume of distribution at steady state in Sprague-Dawley rat at 1 mg/kg, iv measured upto 24 hrs by LC/MS-MS analysis; format: ADME, organism-based; conditions: in vivo, read-out: Vdss
[9] = Clearance in Sprague-Dawley rat at 1 mg/kg, iv measured upto 24 hrs by LC/MS-MS analysis; format: ADME, organism-based; conditions: in vivo
[10] = species on record: Homo sapiens; experiment: Selectivity ratio of IC50 for displacement of fluorescein labeled ACRGDGWC from human Integrin alphaVbeta1 to IC50 for displacement of fluorescein labeled GRGDLGRL from human Integrin alphaVbeta6
[11] = species on record: Homo sapiens; experiment: Selectivity ratio of IC50 for displacement of fluorescein labeled GRGDLGRL from human Integrin alphaVbeta8 to IC50 for displacement of fluorescein labeled GRGDLGRL from human Integrin alphaVbeta6

T1 sequence (P06756 31-889 limits assumed): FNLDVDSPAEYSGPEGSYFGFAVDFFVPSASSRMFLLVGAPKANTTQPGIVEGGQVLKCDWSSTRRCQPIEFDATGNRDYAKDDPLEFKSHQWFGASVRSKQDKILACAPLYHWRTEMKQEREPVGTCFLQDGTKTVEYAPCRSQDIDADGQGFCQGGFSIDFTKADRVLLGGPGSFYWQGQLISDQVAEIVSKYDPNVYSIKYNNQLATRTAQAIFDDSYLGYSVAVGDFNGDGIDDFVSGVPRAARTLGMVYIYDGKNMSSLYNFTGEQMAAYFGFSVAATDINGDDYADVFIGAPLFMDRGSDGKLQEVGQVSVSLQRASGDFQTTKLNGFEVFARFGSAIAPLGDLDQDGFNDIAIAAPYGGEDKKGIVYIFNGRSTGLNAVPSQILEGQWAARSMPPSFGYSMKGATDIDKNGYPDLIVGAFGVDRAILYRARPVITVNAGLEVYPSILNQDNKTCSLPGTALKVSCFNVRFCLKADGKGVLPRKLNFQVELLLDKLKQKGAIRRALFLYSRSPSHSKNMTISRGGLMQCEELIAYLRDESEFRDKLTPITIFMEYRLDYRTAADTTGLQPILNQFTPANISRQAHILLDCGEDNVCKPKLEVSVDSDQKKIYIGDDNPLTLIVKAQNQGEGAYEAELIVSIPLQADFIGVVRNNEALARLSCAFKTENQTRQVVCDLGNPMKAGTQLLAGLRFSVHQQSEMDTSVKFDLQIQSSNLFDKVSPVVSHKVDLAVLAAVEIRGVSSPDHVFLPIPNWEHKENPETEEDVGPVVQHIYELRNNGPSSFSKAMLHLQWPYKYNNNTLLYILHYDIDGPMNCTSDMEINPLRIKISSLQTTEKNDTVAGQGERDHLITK
T1 sequence (P06756 891-1048 limits assumed): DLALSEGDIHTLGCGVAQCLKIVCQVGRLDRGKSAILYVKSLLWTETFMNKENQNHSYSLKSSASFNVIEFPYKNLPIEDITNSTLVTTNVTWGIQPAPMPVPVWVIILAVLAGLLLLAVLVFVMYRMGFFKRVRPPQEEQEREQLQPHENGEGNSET
T1 sequence (P18564 22-788 limits assumed): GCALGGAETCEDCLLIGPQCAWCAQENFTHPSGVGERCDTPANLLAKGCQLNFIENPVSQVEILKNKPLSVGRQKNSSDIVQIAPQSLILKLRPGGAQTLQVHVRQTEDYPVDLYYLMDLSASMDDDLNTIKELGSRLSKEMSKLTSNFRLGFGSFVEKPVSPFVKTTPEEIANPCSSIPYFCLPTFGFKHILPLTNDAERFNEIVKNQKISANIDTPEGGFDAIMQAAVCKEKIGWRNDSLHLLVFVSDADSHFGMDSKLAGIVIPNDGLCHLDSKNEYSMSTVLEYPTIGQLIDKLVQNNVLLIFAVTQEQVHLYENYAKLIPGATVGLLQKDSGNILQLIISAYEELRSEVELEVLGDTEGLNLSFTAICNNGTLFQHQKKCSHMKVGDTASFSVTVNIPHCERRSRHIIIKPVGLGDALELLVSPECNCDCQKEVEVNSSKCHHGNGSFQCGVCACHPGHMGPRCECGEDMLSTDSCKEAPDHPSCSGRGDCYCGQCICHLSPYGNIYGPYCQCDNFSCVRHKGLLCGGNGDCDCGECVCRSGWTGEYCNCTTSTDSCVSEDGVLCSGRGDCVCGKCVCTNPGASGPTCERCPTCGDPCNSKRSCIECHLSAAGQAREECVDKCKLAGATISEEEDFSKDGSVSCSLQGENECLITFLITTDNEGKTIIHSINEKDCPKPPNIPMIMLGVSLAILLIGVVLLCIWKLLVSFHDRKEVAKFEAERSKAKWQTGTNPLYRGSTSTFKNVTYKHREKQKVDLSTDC
Sequence of Integrin alpha-V/beta-8 (P06756 31-889 limits assumed): as the sequence (P06756 31-889 limits assumed) above
Sequence of Integrin alpha-V/beta-8 (P06756 891-1048 limits assumed): as the sequence (P06756 891-1048 limits assumed) above
Sequence of Integrin alpha-V/beta-8 (P26012 43-769 limits assumed): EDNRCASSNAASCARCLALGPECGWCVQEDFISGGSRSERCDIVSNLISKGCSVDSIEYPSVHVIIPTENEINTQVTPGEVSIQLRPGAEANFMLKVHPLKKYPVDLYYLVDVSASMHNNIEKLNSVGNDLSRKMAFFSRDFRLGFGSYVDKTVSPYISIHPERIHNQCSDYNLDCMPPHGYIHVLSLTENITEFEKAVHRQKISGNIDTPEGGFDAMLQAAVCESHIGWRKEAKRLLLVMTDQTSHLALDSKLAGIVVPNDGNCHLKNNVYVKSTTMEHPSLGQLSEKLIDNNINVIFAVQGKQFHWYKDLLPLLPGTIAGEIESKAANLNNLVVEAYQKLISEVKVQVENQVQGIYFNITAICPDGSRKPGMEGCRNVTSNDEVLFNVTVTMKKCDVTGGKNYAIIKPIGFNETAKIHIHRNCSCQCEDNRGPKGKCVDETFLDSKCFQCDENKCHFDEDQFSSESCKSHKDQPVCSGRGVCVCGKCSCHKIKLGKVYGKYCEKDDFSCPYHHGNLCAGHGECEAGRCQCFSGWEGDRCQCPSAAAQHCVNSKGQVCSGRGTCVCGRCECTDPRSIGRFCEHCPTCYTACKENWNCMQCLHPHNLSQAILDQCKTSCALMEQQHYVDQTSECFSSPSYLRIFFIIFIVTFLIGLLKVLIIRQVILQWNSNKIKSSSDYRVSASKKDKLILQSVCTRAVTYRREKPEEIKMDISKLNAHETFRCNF
Sequence of Integrin alpha-V/beta-1 (P05556 21-798 limits assumed): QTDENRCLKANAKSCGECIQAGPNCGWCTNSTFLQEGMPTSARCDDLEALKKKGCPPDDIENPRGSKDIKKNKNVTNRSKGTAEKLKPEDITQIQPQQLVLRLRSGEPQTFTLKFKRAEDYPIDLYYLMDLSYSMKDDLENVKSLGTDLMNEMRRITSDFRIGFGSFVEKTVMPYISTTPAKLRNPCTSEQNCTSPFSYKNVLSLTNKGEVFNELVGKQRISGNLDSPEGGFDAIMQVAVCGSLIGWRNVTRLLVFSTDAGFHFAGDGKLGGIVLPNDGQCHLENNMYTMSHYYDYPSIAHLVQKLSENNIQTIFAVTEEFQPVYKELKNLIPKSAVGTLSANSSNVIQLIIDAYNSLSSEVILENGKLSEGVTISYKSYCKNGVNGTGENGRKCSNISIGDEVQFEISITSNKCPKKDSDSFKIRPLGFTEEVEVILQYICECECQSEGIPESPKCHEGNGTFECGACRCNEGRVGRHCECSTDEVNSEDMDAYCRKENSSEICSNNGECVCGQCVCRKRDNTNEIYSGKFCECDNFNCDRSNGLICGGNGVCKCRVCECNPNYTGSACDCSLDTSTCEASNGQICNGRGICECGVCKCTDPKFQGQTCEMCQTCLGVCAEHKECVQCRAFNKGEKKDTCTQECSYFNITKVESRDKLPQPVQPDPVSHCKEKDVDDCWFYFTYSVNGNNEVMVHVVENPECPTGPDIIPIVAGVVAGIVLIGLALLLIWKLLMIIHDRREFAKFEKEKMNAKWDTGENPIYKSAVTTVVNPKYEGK
Sequence of Integrin alpha-V/beta-1 (P06756 31-889 limits assumed): as the sequence (P06756 31-889 limits assumed) above
Sequence of Integrin alpha-V/beta-1 (P06756 891-1048 limits assumed): as the sequence (P06756 891-1048 limits assumed) above

| SMILES | IC50 [1] | IC50 [2] | IC50 [3] | logD [4] | IC50 [5] | half-life [6] | bioavailability [7] | Vd [8] | clearance [9] | Ratio IC50 [10] | Ratio IC50 [11] |
| --- | --- | --- | --- | --- | --- | --- | --- | --- | --- | --- | --- |
| O=C(O)[C@H](c1cc(F)ccc1[C@H]1CCCCO1)N1CC[C@@H](OCCCCc2ccc3c(n2)NCCC3)C1 | 130 nM | 130 nM | 8 nM | 1.7 | – | – | – | – | – | – | – |
| O=C(O)[C@H](c1ccccc1C1CCCOC1)N1CC[C@@H](OCCCCc2ccc3c(n2)NCCC3)C1 (some centres not stated) | 180 nM | 300 nM | 25 nM | 1.2 | – | – | – | – | – | – | – |
| O=C(O)[C@H](c1cc(F)ccc1C1CCOCC1)N1CC[C@@H](OCCCCc2ccc3c(n2)NCCC3)C1 | 100 nM | 120 nM | 7.8 nM | 1.3 | 128 nM | – | – | – | – | – | – |
| CC1(C)CCCC(c2ccccc2[C@@H](C(=O)O)N2CC[C@@H](OCCCCc3ccc4c(n3)NCCC4)C2)O1 (some centres not stated) | 150 nM | 72 nM | 4.6 nM | 2.1 | – | – | – | – | – | – | – |
| CC1(C)CC[C@@H](c2ccc(F)cc2[C@@H](C(=O)O)N2CC[C@@H](OCCCCc3ccc4c(n3)NCCC4)C2)OC1 | 140 nM | 690 nM | 0.5 nM | 2.6 | 41 nM | 1.2 h | 25% | 2.4 L/kg | 30 mL/min/kg | – | – |
| O=C(O)[C@H](c1ccccc1C1CC1)N1C[C@@H](F)[C@@H](OCCCCc2ccc3c(n2)NCCC3)C1 | 140 nM | 130 nM | 8.5 nM | 1.4 | – | – | – | – | – | – | – |
| O=C(O)[C@H](c1cc(F)ccc1[C@H]1CCOC1)N1CC[C@@H](OCCCCc2ccc3c(n2)NCCC3)C1 | 190 nM | 110 nM | 2.8 nM | 1.1 | 90 nM | – | – | – | – | – | – |
| O=C(O)[C@H](c1ccccc1C1CC1)N1CC[C@@H](OCCCCc2ccc3c(n2)NCCC3)C1 | 55 nM | 96 nM | 4.6 nM | 1.4 | – | – | – | – | – | – | – |
| O=C(O)CN1CCC(C(=O)NCCCc2ccc3c(n2)NCCC3)CC1 | 370 nM | 650 nM | 1500 nM | -0.5 | – | – | – | – | – | – | – |
| O=C(O)[C@H](c1cc(F)ccc1[C@H]1CCCO1)N1CC[C@@H](OCCCCc2ccc3c(n2)NCCC3)C1 | 155 nM | 193 nM | 12 nM | 1.4 | – | – | – | – | – | – | – |
| O=C(O)CN1CC[C@@H](C(=O)NCCCc2ccc3c(n2)NCCC3)C1 | – | 4000 nM | 790 nM | -0.6 | – | – | – | – | – | – | – |
| O=C(O)[C@H](c1ccccc1C1CC1)N1CC[C@@H](n2cc(CCc3ccc4c(n3)NCCC4)cn2)C1 | 100 nM | 56 nM | 33 nM | 1.6 | – | – | – | – | – | – | – |
| O=C(O)CN1CC[C@H](C(=O)NCCCc2ccc3c(n2)NCCC3)C1 | – | 1600 nM | 4300 nM | – | – | – | – | – | – | – | – |
| O=C(O)[C@H](c1ccc(C2CC2)cc1)N1CC[C@@H](OCCCCc2ccc3c(n2)NCCC3)C1 | 300 nM | 1600 nM | 12 nM | 1.7 | – | – | – | – | – | – | – |
| O=C(NCCCc1ccc2c(n1)NCCC2)C1CCN([C@@H](C(=O)O)c2ccccc2)CC1 | – | 30000 nM | 16000 nM | – | – | – | – | – | – | – | – |
| O=C(NCCCc1ccc2c(n1)NCCC2)[C@@H]1CCN([C@H](C(=O)O)c2ccccc2)C1 | 78 nM | 1900 nM | 37 nM | 0.4 | – | – | – | – | – | > 50 | – |
| CC1(C)CC[C@@H](c2ccccc2[C@@H](C(=O)O)N2CC[C@@H](OCCCCc3ccc4c(n3)NCCC4)C2)OC1 | 430 nM | 830 nM | 0.8 nM | 1.5 | 35 nM | 1.2 h | – | 2.6 L/kg | 50 mL/min/kg | 1100 | 560 |
| O=C(O)[C@H](c1ccccc1C1CC1)N1CC[C@@H](Oc2ccc(Cc3ccc4c(n3)NCCC4)cc2)C1 | 7.7 nM | 27 nM | 0.7 nM | 2.4 | – | – | – | – | – | – | – |
| O=C(O)[C@H](c1cccc(C2CC2)c1)N1CC[C@@H](OCCCCc2ccc3c(n2)NCCC3)C1 | 180 nM | 1100 nM | 13 nM | 1.7 | – | – | – | – | – | – | – |
| O=C(NCCCc1ccc2c(n1)NCCC2)C1CCN([C@H](C(=O)O)c2ccccc2)CC1 | – | 14000 nM | 4100 nM | 0.2 | – | – | – | – | – | – | – |
| O=C(O)[C@H](c1ccccc1C1CC1)N1CC[C@@H](OCCCc2ccc3c(n2)NCCC3)C1 | 140 nM | 250 nM | 8.6 nM | 1.2 | – | – | – | – | – | – | – |
| O=C(O)[C@H](c1cc(F)ccc1[C@@H]1CCOC1)N1CC[C@@H](OCCCCc2ccc3c(n2)NCCC3)C1 | 83 nM | 170 nM | 4.1 nM | 1 | – | – | – | – | – | – | – |
| O=C(O)[C@H](c1ccccc1C1CC1)N1CC[C@@H](OCCCCCc2ccc3c(n2)NCCC3)C1 | 17 nM | 94 nM | 4.4 nM | 1.8 | – | – | – | – | – | – | – |
| O=C(NCCCc1ccc2c(n1)NCCC2)[C@@H]1CCN([C@@H](C(=O)O)c2ccccc2)C1 | 130 nM | 9500 nM | 93 nM | – | – | – | – | – | – | – | – |
| O=C(O)[C@H](c1ccccc1)N1CC[C@@H](OCCCCc2ccc3c(n2)NCCC3)C1 | 1100 nM | 3900 nM | 80 nM | 0.7 | – | – | – | – | – | – | – |
| O=C(O)[C@H](c1cc(F)ccc1[C@@H]1CCCO1)N1CC[C@@H](OCCCCc2ccc3c(n2)NCCC3)C1 | 134 nM | 92 nM | 1.9 nM | 1.5 | 21 nM | 1.5 h | 41% | 1.2 L/kg | 13 mL/min/kg | > 50 | > 50 |
| O=C(O)[C@H](c1cc(F)ccc1[C@@H]1CCCCO1)N1CC[C@@H](OCCCCc2ccc3c(n2)NCCC3)C1 | 74 nM | 87 nM | 1.6 nM | – | 16 nM | 1.5 h | 38% | 2.7 L/kg | 29 mL/min/kg | > 50 | > 50 |
| CC1(C)CCO[C@H](c2ccccc2[C@@H](C(=O)O)N2CC[C@@H](OCCCCc3ccc4c(n3)NCCC4)C2)C1 | 410 nM | 570 nM | 1.6 nM | 2.3 | 213 nM | – | – | – | – | – | – |
| O=C(O)[C@H](c1cc(F)ccc1C1CC1)N1CC[C@@H](OCCCCc2ccc3c(n2)NCCC3)C1 | 38 nM | 92 nM | 4 nM | 1.7 | – | – | – | – | – | – | – |
